Patent US20240173317A1, “METHODS FOR TREATING PROGRESSIVE FAMILIAL INTRAHEPATIC CHOLESTASIS” (MIRUM PHARMACEUTICALS, INC., priority 2022, published 2024)

What was measured:
subjects with PFIC [1] = experiment: Treatment-emergent adverse events (TEAEs), MARCH-PFIC Phase 3 study; type: in vivo
Source text: A TEAE can therefore be any unfavorable and unintended sign (including an abnormal laboratory finding), symptom, or disease temporally associated with the use of a medicinal (investigational) product, whether or not related to the medicinal (investigational) product (ICH Guidance E2A 1995). All TEAEs are collected from the time the informed consent is signed until the defined follow-up period. This includes events occurring during the screening phase of the study, regardless of whether or not study medication is administered.
A serious adverse event (SAE) is any untoward medical occurrence (whether considered to be related to study medication or not) that at any dose: 1) Results in death; 2) Is life-threatening; 3) Requires inpatient hospitalization or prolongation of existing hospitalization; 4) Results in persistent or significant disability/incapacity; or 5) Is an important medical event.
All SAEs (regardless of relationship to study) are collected from the time the subject signs the informed consent until the defined follow-up period and must be reported within 24 hours of the first awareness of the event.

subjects with PFIC [2] = experiment: EDQ(Obs) sleep disturbance score, MARCH-PFIC Phase 3 study; type: in vivo, human; conditions: All-PFIC; FIG. 27D
Source text: The terms “EDQ(Obs)”, “EDQ(Pt)”, and “EDQ” as used herein, refer to Exploratory Diary Questionnaire that are used to assess pruritus in children under the age of 18 or adults of at least 18 years of age. EDQ is a caregiver/patient reported outcome measure administered as a twice daily electronic diary. EDQ contained a question about sleep related to pruritus: “because of itch, my child had trouble staying asleep. 1—Never, 2—Rarely, 3—ometimes, 4—Often, or 5—Almost Always.” Caregivers for all subjects aged <9 years completed the Observer instrument: EDQ(Obs). Subjects ≥9 years of age completed the patient instrument: EDQ(Pt). EDQ includes questions on sleep disturbances related to pruritus.
Exploratory Diary Questionnaire. Pruritus was assessed using the EDQ caregiver/patient reported outcome measure administered as a twice daily electronic diary. […] Pruritus was assessed and recorded twice daily by subjects or caregivers, via EDQ, beginning with the day after the screening visit and every day throughout the duration of the study, as described in Table 2.
Methods: Participants were randomized to receive MRX 570 μg/kg BID or placebo (PBO) (FIG. 27A). The primary analysis evaluated pruritus as assessed by the caregiver using ItchRO(Obs) 0-4 scale; as well as by physician using the Clinician Scratch Scale (CSS). Sleep was assessed using the Exploratory Diary Questionnaire (Observer) (EDQ[Obs]). […]

participants with ALGS = experiment: ItchRO(Obs) pruritus in participants with ALGS aged 16 years and older; type: in vivo, human
Method: All patients received the daily dose appropriate for their weight, with an adult maximum dose of 28.5 mg/d. ^bBefore age 16 years is defined as the last data point prior to turning 16 years of age. After age 16 years is defined as the first data point after turning 16 years of age.
FIGS. 31A and 31B show a change in ltchRO(Obs) (FIG. 31A) and sBA (FIG. 31B) for participants who initiated MRX treatment at <16 years of age (n=11). Of 11 participants, 9 had ItchRO(Obs) scores available for all time points and were included in the analysis. ^bItchRO(Obs) is a 0-4 scale with >1-point reduction considered clinically meaningful. Mean ItchRO(Obs) was rounded to 1 decimal place. Error bars represent SE. Significance was determined using student t test. ^cMean sBA was rounded to the nearest whole number. Error bars represent SE. ^dAverage of last 2 records prior to age 16 years. ^eAverage of first 2 records after age 16 years. ^fAverage of final 2 records.
FIGS. 32A and 32B show a change in ltchRO(Obs) (FIG. 32A) and sBA (FIG. 32B) for participants who Initiated MRX treatment at ≥16 years of age (n=3). ^aItchRO(Obs) is 0-4 scale with ≥1-point reduction considered clinically meaningful. ^bAverage of final two records.
The efficacy and safety of MRX in participants with ALGS aged ≥16 years transitioning to adult care and participant aged ≥16 years who initiate MRX treatment were studied (FIG. 30). […]

subjects with PFIC [3] = experiment: Clinical laboratory evaluations (ALT/transaminases, INR, vitamins A, D, E), MARCH-PFIC Phase 3 study; type: in vivo, human
Source text: Clinical Laboratory Evaluations.
For subjects with a confirmed increase in ALT or TSB level, meeting the close monitoring criteria, the following investigations were considered, as clinically indicated: 1) Close and frequent monitoring of liver enzyme and serum bilirubin tests as clinically indicated; 2) Symptoms as well as prior, current, and intercurrent diseases/illnesses; 3) Use of or recent change in use of concomitant treatment (including non-prescription medications, herbal and dietary supplement preparations), alcohol use, recreational drug use, and special diets; 4) History for exposure to environmental chemical agents and travel; 5) Serology for viral hepatitis (HAV IgM, HBsAg, HCV antibody, HCVRNA, CMV IgM, and EBV antibody panel); 6) Serology for autoimmune hepatitis (e.g., antinuclear antibody [ANA]); 7) AST, creatine phosphokinase (CPK), and lactate dehydrogenase (LDH); 8) CBC with differential blood count (eosinophils); 9) Reticulocyte count, PT/INR.

[4] = MARCH, all PFIC cohorts, Maralixibat (n = 47)
[5] = MARCH, all PFIC cohorts, Maralixibat (n = 47), listed as Maralixibat
[6] = among the 8 participants receiving MRX who had transaminase elevations

## CCCCC1(CCCC)CS(=O)(=O)c2ccc(N(C)C)cc2[C@@H](c2ccc(OCc3ccc(C[N+]45CCN(CC4)CC5)cc3)cc2)[C@H]1O [maralixibat, 1-(4-((4-((4R,5R)-3,3-dibutyl-7-(dimethylamino)-4-hydroxy-1,1-dioxido-2,3,4,5-tetrahydrobenzo[b]thiepin-5-yl)phenoxy)methyl)benzyl)-1,4-diazabicyclo[2.2.2]octan-1-ium]
Subjects with PFIC [1]; MARCH
  median duration of diarrhea: 5.5 days
  patients who discontinued MRX due to transaminase elevation: No patients
  tolerability: well-tolerated
Subjects with PFIC [1]; [4]
  Any TEAE, %: (100%)
  Diarrhoea related to study drug, %: (27.7%)
  GI disorders (most common TEAEs), %: 74.5%
  GI events potentially related to study drug, %: (29.8%)
  Grade 3/4 TEAE, %: (6.4%)
  Serious TEAE (SAE), %: 10.6%
  TEAE leading to discontinuation, %: (2.1%)
  TEAE potentially related to study drug, %: (38.3%)
Subjects with PFIC [1]; MARCH, all PFIC cohorts, Maralixibat (n = 47), listed as MRX
  Serious TEAE (SAE), %: 10.6%
Subjects with PFIC [1]; [5]
  Diarrhoea, %: (57.4%)
  Serious TEAE (SAE), %: (10.6%)
Subjects with PFIC [1]; MARCH, MRX (n = 47)
  Constipation, %: (8.5) %
  Gastroenteritis, %: (6.4) %
  Haematochezia, %: (6.4) %
  Increased ALT, %: (12.8) %
  Vomiting, %: (6.4) %
Subjects with PFIC [1]; [6]
  participants with resolution of the transaminase elevation without drug interruption: 6
  patients with ongoing stable transaminase elevation even after drug interruption or dose reduction: 2
Subjects with PFIC [2]
  CFB in sleep (EDQ(Obs)), difference MRX vs PBO, delta [95% CI]: significant improvements
Participants with ALGS; MRX during childhood, maintained into early adulthood, FIG. 31A
  improvements in pruritus (ItchRO(Obs)): significant improvements
Participants with ALGS; participants receiving MRX in early adulthood, FIG. 32A
  improvements in pruritus (ItchRO(Obs)): significant improvements
Subjects with PFIC [3]; All-PFIC Cohort, FIG. 26A-B
  changes in serum ALT: No significant changes
Subjects with PFIC [3]; MARCH, either group
  changes from baseline in transaminase levels: no clinically meaningful changes
Subjects with PFIC [3]; MARCH, under regular FSV supplementation
  changes from baseline in serum levels of vitamins A, D, and E: No clinically meaningful changes
Subjects with PFIC [3]; MARCH, week 26
  International normalized ratio (INR), mean change from Baseline: −0.3
